Test [1] concerns the target T1, WT nNOSoxy (oxygenase domain of rat neuronal nitric oxide synthase) (Rattus norvegicus, UniProt P29476, V567F).
T1 construct: gene Nos1; oxygenase domain, aa 1-720 plus 6-histidine tag, plasmid pCWnNOSoxy, E. coli BL21(DE3), HisTrap purification
Kind of test: biochemical. Also noted: UV-visible perturbation difference spectroscopy; displacement of heme-bound imidazole (0.5 mM), apparent dissociation constant. As to conditions: read-out: Val567Phe. As for the experimental part: (§1) The native enzymes (~1–2 μM) were incubated 5 min at 4 °C in 50 mM HEPES buffer pH 7.4 in the presence of 0.5 mM ImH and then equally divided into reference and sample cuvettes. After 2 min at room temperature, increasing concentrations of the studied compounds were added to the sample cuvette and equivalent amounts of buffer were added to the reference cuvette. Apparent dissociation constants (K s,app) were estimated by plotting the difference in absorbance between peak (~395 nm) and valley (~430 nm) as a function of added substrate or substrate analogue concentrations and fitting the data to a hyperbolic one‐site binding model by Origin (OriginLab Corp., Northampton, MA, USA). […] Effective K s values can be deduced from the K s,app and the K s values for ImH, assuming simple competitive binding equilibrium 37.

Test [2] addresses T2, WT nNOSoxy (oxygenase domain of rat neuronal nitric oxide synthase) (Rattus norvegicus, UniProt P29476, V567T).
T2 construct: gene Nos1; oxygenase domain, aa 1-720 plus 6-histidine tag, plasmid pCWnNOSoxy, E. coli BL21(DE3), HisTrap purification
Kind of test: biochemical. Also noted: UV-visible perturbation difference spectroscopy; displacement of heme-bound imidazole (0.5 mM), apparent dissociation constant. To be noted: read-out: Val567Thr. As for the experimental part:
as §1

The target in test [3] is T3, WT nNOSoxy (oxygenase domain of rat neuronal nitric oxide synthase) (Rattus norvegicus, UniProt P29476, V567S).
T3 construct: gene Nos1; oxygenase domain, aa 1-720 plus 6-histidine tag, plasmid pCWnNOSoxy, E. coli BL21(DE3), HisTrap purification
T3 sequence (P29476 1-720 V567S): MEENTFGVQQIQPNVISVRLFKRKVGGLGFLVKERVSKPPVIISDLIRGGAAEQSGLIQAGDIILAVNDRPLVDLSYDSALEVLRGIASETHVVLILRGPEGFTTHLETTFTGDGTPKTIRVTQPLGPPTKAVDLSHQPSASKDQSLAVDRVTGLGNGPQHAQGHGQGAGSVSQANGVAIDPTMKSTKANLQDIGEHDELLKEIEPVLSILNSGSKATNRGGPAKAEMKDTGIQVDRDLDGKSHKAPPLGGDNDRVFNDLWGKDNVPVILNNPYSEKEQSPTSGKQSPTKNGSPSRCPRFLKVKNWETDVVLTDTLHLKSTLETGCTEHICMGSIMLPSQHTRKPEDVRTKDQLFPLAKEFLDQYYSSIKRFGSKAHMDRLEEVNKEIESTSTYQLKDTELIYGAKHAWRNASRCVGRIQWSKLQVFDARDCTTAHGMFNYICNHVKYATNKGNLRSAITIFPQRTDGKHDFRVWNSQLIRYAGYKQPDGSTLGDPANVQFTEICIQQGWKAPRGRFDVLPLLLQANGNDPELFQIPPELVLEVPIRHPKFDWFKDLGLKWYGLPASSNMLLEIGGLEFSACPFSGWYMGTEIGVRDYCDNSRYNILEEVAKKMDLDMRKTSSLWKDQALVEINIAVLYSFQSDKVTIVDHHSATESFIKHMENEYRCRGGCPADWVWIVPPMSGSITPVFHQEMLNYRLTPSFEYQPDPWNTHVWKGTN
Nature of the test: biochemical. Also noted: UV-visible perturbation difference spectroscopy; displacement of heme-bound imidazole (0.5 mM), apparent dissociation constant. As to conditions: read-out: Val567Ser. Here is the method:
as §1

In test [4] the target is T4, WT nNOSoxy (oxygenase domain of rat neuronal nitric oxide synthase) (Rattus norvegicus, UniProt P29476, V567R).
T4 construct: gene Nos1; oxygenase domain, aa 1-720 plus 6-histidine tag, plasmid pCWnNOSoxy, E. coli BL21(DE3), HisTrap purification
T4 sequence (P29476 1-720 V567R): as the sequence (P29476 1-720 V567S) above, with S567R counted along it
Kind of test: biochemical. On the set-up: UV-visible perturbation difference spectroscopy; displacement of heme-bound imidazole (0.5 mM), apparent dissociation constant. As to conditions: read-out: Val567Arg. Here is the method: as §1

The target of test [5] is T5, WT nNOSoxy (oxygenase domain of rat neuronal nitric oxide synthase) (Rattus norvegicus, UniProt P29476, V567Y).
T5 construct: gene Nos1; oxygenase domain, aa 1-720 plus 6-histidine tag, plasmid pCWnNOSoxy, E. coli BL21(DE3), HisTrap purification
T5 sequence (P29476 1-720 V567Y): as the sequence (P29476 1-720 V567S) above, with S567Y counted along it
Nature of the test: biochemical. On the set-up: UV-visible perturbation difference spectroscopy; displacement of heme-bound imidazole (0.5 mM), apparent dissociation constant. To be noted: read-out: Val567Tyr. Here is the method: as §1

The target in test [6] is T1, WT nNOSoxy (oxygenase domain of rat neuronal nitric oxide synthase). Kind of test: UV-visible difference spectroscopy, heme-Fe(III)-imidazole complex formation. It counts as binding. To be noted: read-out: Val567Phe. From the text: (§2) UV-visible difference spectroscopy, heme-Fe(III)-imidazole complex formation on WT nNOSoxy (oxygenase domain of rat neuronal nitric oxide synthase)

Test [7] concerns the target T6, WT nNOSoxy (oxygenase domain of rat neuronal nitric oxide synthase) (Rattus norvegicus, UniProt P29476).
T6 construct: gene Nos1; oxygenase domain, aa 1-720 plus 6-histidine tag, plasmid pCWnNOSoxy, E. coli BL21(DE3), HisTrap purification
The description is as above. The class given is binding.
Description: as §2

Test [8] deals with T3, WT nNOSoxy (oxygenase domain of rat neuronal nitric oxide synthase). The test is described as above. It counts as binding. To be noted: read-out: Val567Ser.
Description: as §2

Test [9] concerns the target T4, WT nNOSoxy (oxygenase domain of rat neuronal nitric oxide synthase). The description is as above. The class given is binding. As to conditions: read-out: Val567Arg.
Description: as §2

In test [10] the target is T5, WT nNOSoxy (oxygenase domain of rat neuronal nitric oxide synthase). The test is described as above. The class given is binding. To be noted: read-out: Val567Tyr.
Description: as §2

For test [11], the target named is T2, WT nNOSoxy (oxygenase domain of rat neuronal nitric oxide synthase). The test is described as above. To be noted: read-out: Val567Thr. The class given is binding.

T2 sequence (P29476 1-720 V567T): as the sequence (P29476 1-720 V567S) above, with S567T counted along it
T1 sequence (P29476 1-720 V567F): as the sequence (P29476 1-720 V567S) above, with S567F counted along it
T6 sequence (P29476 1-720): as the sequence (P29476 1-720 V567S) above, with S567V counted along it

For the molecule `CC(C)NC(=N)N` [compound 9, Isopropyl-guanidine], the Kd in [1] is 293 ± 34 µM; in [2], 99 ± 19 µM; in [3] it was 34.2 ± 4.2 µM; in test [4], > 500 µM; in test [5], 147 ± 43 µM.
For `CCCNC(=N)N` [compound 5, n-Propyl-guanidine], the Kd in [2] was found to be 267 ± 63 µM; in test [3], 122 ± 8 µM; in test [5], 295 ± 16 µM.
As for `c1c[nH]cn1` [imidazole], the Kd in [6] was found to be 152 ± 26 µM; in test [7], 76.3 ± 5.4 µM; in test [8], 140 ± 16 µM; in [9] it was 262 ± 77 µM; in test [10], 11.1 ± 3 µM; in test [11], 93 ± 24.7 µM.
In the case of `COc1ccc(NC(=N)N)cc1` [compound 12, 4-methoxyphenyl-guanidine], the Kd in test [2] turned out to be 189 ± 63 µM; in test [3], 7.8 ± 1.2 µM.
`N=C(N)Nc1ccc(F)cc1` [compound 11, 4-fluorophenyl-guanidine]: the Kd in test [1] is 165 ± 87 µM; in test [3], 2.2 ± 0.4 µM.
Regarding `N=C(N)NC1CC1` [compound 8, Cyclopropyl-guanidine], the Kd in test [2] worked out at 20.2 ± 3.9 µM; in [3], 21.6 ± 3.9 µM; in [4], 237 ± 85 µM; in test [5] it was 24.3 ± 1.4 µM.
Take `CCCCNC(=N)N` [compound 6, n-Butyl-guanidine]: the Kd amounted to 23 ± 5.6 µM in test [2] and 322 ± 31 µM in [3].

Source of the values: PMC6120233, “Importance of Val567 on heme environment and substrate recognition of neuronal nitric oxide synthase” (FEBS Open Bio, 2018).
